We go through four molecules from patent US12195473B2, “KRAS mutant protein inhibitors” (JACOBIO PHARMACEUTICALS CO., LTD, priority 2019, dated 2025).

The structures appear in SMILES notation. Like-named read-outs stand apart in the source and are kept apart here.

The subject of data set [1] is NCI-H358 cells expressing KRAS G12C. Briefly: Phospho-ERK1/2(THR202/TYR204) HTRF assay. It is filed as cell-based. The following applies: 2 hours incubation, read-out: p-ERK IC50. As for the experimental part:
NCI-H358 cells expressing KRAS G12C were cultured in RPMI 1640 medium (Gibco) containing 10% fetal bovine serum (Gibco). The NCI-H358 cells in culture medium were seeded in 96-well plates at a concentration of 40,000 cells/well and then put in a 37° C./5% CO2 cell incubator to incubate overnight. The next day, culture medium was removed and the compound diluted in assay medium (RPMI 1640, 0.1% FBS) was added in each well. After 2 hours incubation in a 37° C./5% CO2 cell incubator, the assay medium in 96-well plates was removed, then 50 μL of 1× blocking reagent-supplemented lysis buffer (Cisbio) was added and the plates were incubated at 25° C. for 45 min with shaking. 10 μL of cell lysates from the 96-well plates were transferred to a 384-well plate (Greiner) containing 2.5 μL/well HTRF® pre-mixed antibodies (Cisbio 64AERPEH). Incubate 4 hours at 25° C. and then read HTRF signals on Tecan Spark multimode microplate reader. The data were analyzed using a 4-parameter logistic model to calculate IC50 values.

A further data set deals with HIS-KRAS (G12C). In kind it is biochemical. The following applies: read-out: SOS1 catalyzed nucleotide exchange IC50.
Data set [2] in a line: Mouse pharmacokinetic study. In kind it is in vivo, Balb/c mouse. The settings on record: for clearance / Vd / Cmax / AUC(0-t) / bioavailability: plasma, Balb/c mouse (female); for clearance / Vd: 3 mg/kg, iv; for Vd: read-out: Vss; for Cmax / AUC(0-t) / bioavailability: 10 mg/kg, po; for AUC(0-t): read-out: AUC0-24 h; for bioavailability: read-out: Oral BA (F %). As for the experimental part:
3. Mouse Pharmacokinetic Study
The purpose of this study was to evaluate the pharmacokinetic properties of compounds in Balb/c mouse (♀) following single dose administration. The day before administration, mice were fasted overnight and free access to water. Six mice were needed for each compound and the six mice were divided into two groups (n=3/group), group A and group B. Mice in group A were treated with a single 3 mg/kg dose of compound (iv). Mice in group B were treated with a single 10 mg/kg dose of compound (po). For each mouse in group A, blood samples were collected at pre-dose, and at the time point of 0.083, 0.25, 0.5, 1, 2, 4, 6, 8 and 24 h post-dose. For each mouse in group B, blood samples were collected at pre-dose, and at the time point of 0.25, 0.5, 1, 2, 3, 4, 6, 8 and 24 h post-dose. Blood samples were placed on ice until centrifugation to obtain plasma samples. The plasma samples were stored at −80° C. until analysis. The concentration of compound in plasma samples were determined using a LC-MS/MS method.

The nature of data set [3]: Dog pharmacokinetic study. The settings on record: plasma, beagle dog; for clearance / Vd: 1 mg/kg, iv; for Vd: read-out: VSS; for AUC(0-t) / Cmax / bioavailability: 10 mg/kg, po; for AUC(0-t): read-out: AUC0-24 h; for Cmax: read-out: Cmax; for bioavailability: read-out: Oral BA (F %). It is filed as in vivo, beagle dog. As for the experimental part: 4. Dog Pharmacokinetic Study
The purpose of this study was to evaluate the pharmacokinetic properties of compounds in beagle dog following single dose administration. The day before administration, dogs were fasted overnight and free access to water. Four beagle dogs were needed for each compound and the four dogs were divided into two groups (one male (♂) and one female (♀) in each group). Dogs in group A were treated with a single 1 mg/kg dose of compound (iv). Dogs in group B were treated with a single 10 mg/kg dose of compound (po). For dogs in group A, blood samples were collected at pre-dose, and at the time point of 0.083, 0.25, 0.5, 1, 2, 4, 6, 8 and 24 h. For dogs in group B, blood samples were collected at pre-dose, and at the time point of 0.25, 0.5, 1, 2, 4, 6, 8 and 24 h post-dose. Blood samples were placed on ice until centrifugation to obtain plasma samples. The plasma samples were stored at −80° C. until analysis. The concentration of compound in plasma samples were determined using a LC-MS/MS method.

In the case of `C=CC(=O)N1CCN(c2c(C#N)c(=O)n(-c3c(C)ccnc3C(C)C)c3nc(-c4c(N)c(F)c(F)c(F)c4F)c(Cl)cc23)CC1` (atropisomer, axis not shown; (P)) [Compound 1-1, (P)-4-(4-acryloylpiperazin-1-yl)-7-(2-amino-3,4,5,6-tetrafluorophenyl)-6-chloro-1-(2-isopropyl-4-methylpyridin-3-yl)-2-oxo-1,2-dihydro-1,8-naphthyridine-3-carbonitrile], the IC50 was 176 nM in data set [1] and 14.1 nM in the data set with HIS-KRAS (G12C).
In the case of `C=CC(=O)N1CCN(c2c(C#N)c(=O)n(-c3c(C)ccnc3C(C)C)c3nc(-c4c(N)c(F)c(F)c(F)c4F)c(Cl)cc23)[C@@H](C)C1` [Compound 11, 4-((S)-4-acryloyl-2-methylpiperazin-1-yl)-7-(2-amino-3,4,5,6-tetrafluorophenyl)-6-chloro-1-(2-isopropyl-4-methylpyridin-3-yl)-2-oxo-1,2-dihydro-1,8-naphthyridine-3-carbonitrile], in data set [2] (mouse model, compared with Compound A, Amgen 6 and Amgen 6.3), the “Pharmacokinetic properties (in words)” value is given as “excellent pharmacokinetic properties”. Also, in data set [2], the clearance turned out to be 7.2 mL/min/kg, the Vd is 1 L/kg, the highest concentration (Cmax) came to 3340 ng/mL and the AUC(0-t) amounted to 9590 ng·h/mL. For the same molecule, in data set [2], the bioavailability was 38%.
In the case of `C=CC(=O)N1CCN(c2c(C#N)c(=O)n(-c3c(C)ccnc3C(C)C)c3nc(-c4ccccc4F)c(Cl)cc23)CC1` [Amgen 6, 4-(4-acryloylpiperazin-1-yl)-6-chloro-7-(2-fluorophenyl)-1-(2-isopropyl-4-methylpyridin-3-yl)-2-oxo-1,2-dihydro-1,8-naphthyridine-3-carbonitrile], in data set [1] (Homo sapiens), the IC50 amounted to 29.9 nM. For the same molecule, in data set [2], the clearance is 72 mL/min/kg, the Vd is 2.6 L/kg, the Cmax is 901 ng/mL and the AUC(0-t) came out at 1030 ng·h/mL. Also, in data set [2], the bioavailability is 44%. Moreover, in data set [3] (female), the clearance was 15.5 mL/min/kg, the Vd worked out at 0.543 L/kg, the AUC(0-t) stood at 1330 ng·h/mL and the Cmax turned out to be 2580 ng/mL. Further, in data set [3] (female), the bioavailability was 12.4%. In addition, in data set [3] (male), the clearance was determined as 11.8 mL/min/kg, the Vd amounted to 0.412 L/kg, the AUC(0-t) was found to be 2940 ng·h/mL and the Cmax turned out to be 3690 ng/mL. For the same molecule, the bioavailability in data set [3] (male) was found to be 20.9%.
As to `C=CC(=O)N1CCN(c2c(C#N)c(=O)n(-c3c(C(C)C)ncnc3C(C)C)c3nc(-c4c(N)cccc4F)c(Cl)cc23)CC1` [Amgen 6.3, 4-(4-acryloylpiperazin-1-yl)-7-(2-amino-6-fluorophenyl)-6-chloro-1-(4,6-diisopropylpyrimidin-5-yl)-2-oxo-1,2-dihydro-1,8-naphthyridine-3-carbonitrile], in data set [1] (Homo sapiens), the half-maximal inhibitory concentration (IC50) is 20.1 nM. Moreover, in data set [2], the clearance is 32 mL/min/kg, the Vd stood at 1.4 L/kg, the concentration peaked (Cmax) at 1590 ng/mL and the AUC(0-t) is 1660 ng·h/mL. Besides, the bioavailability in data set [2] turned out to be 32%. The half-inhibitory concentration (IC50) with HIS-KRAS (G12C) (GDP-loaded HIS-KRAS (G12C), 1 hour pre-incubation with compound, TR-FRET) was 2.77 nM. Also, in data set [3] (female), the clearance worked out at 329 mL/min/kg and the Vd turned out to be 3.1 L/kg. In data set [3] (male), the clearance amounted to 239 mL/min/kg, the Vd was determined as 2.3 L/kg, the AUC(0-t) was 5.1 ng·h/mL and the maximum concentration (Cmax) came to 8 ng/mL. The bioavailability in data set [3] (male) turned out to be 0.7%.
